In patent US12268666B2, “Spray-dried dispersions, formulations, and polymorphs of (S)-5-amino-3-(4-((5-fluoro-2-methoxybenzamido)methyl)phenyl)-1-(1,1,1-trifluoropropan-2-yl)-1H-pyrazole-4-carboxamide” (Loxo Oncology, Inc., priority 2018, dated 2025) one finds remaining activity and IC50 data, which are given here for one molecule.

Bounds are passed on as bounds.

One assay concerns the target T1, ERBB4 (Homo sapiens, UniProt Q15303).
T1 construct: purchased Reaction Biology
The assay is described as follows: Kinase selectivity, radiolabeled ATP activity assay. In kind it is biochemical. As for the experimental part:
(§1) Each assay is performed at an ATP concentration close to the Km for each enzyme. […] BRK, CSK, ERBB4, FYN, MEK1, MEK2, TXK, and YES1 The inhibitory activity of the compound of Formula I on the enzymatic activity of these kinases and TEC is determined using a radiolabeled ATP activity assay conducted with an ATP concentration near the ATP Km for each enzyme. After co-incubation with a serial dilution of the compound of Formula I, the quantity of ^33P incorporated into a peptide substrate is measured and the data analyzed using standard curve fitting methods.

In another assay the target is T2, MEK2 (Homo sapiens, UniProt P36507).
T2 construct: purchased Reaction Biology
T2 sequence (P36507 whole entry): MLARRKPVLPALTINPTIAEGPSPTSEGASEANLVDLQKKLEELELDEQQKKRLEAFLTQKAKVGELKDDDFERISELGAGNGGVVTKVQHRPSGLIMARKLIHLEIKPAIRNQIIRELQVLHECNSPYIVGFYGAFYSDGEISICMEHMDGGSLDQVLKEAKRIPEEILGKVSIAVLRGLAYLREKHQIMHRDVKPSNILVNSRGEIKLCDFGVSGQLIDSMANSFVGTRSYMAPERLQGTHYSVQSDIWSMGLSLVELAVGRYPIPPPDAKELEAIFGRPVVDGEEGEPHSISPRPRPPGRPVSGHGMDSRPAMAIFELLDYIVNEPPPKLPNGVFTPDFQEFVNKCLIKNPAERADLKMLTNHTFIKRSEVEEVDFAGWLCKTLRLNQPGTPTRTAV
Described as above. The class given is biochemical. As for the experimental part:
as §1

A further assay deals with T3, MEK1 (Homo sapiens, UniProt Q02750).
T3 construct: purchased Reaction Biology
T3 sequence (Q02750 whole entry): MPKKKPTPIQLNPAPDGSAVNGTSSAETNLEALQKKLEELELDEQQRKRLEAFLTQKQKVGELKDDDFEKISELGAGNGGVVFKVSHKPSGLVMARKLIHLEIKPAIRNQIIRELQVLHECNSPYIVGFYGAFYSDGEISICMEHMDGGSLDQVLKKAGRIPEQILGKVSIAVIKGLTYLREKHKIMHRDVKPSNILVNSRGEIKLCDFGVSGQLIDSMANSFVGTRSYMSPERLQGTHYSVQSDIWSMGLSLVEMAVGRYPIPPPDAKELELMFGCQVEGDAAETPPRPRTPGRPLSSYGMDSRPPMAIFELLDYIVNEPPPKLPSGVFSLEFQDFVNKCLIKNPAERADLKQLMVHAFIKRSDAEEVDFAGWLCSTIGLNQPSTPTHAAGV
The description is as above. In kind it is biochemical. As for the experimental part: as §1

The target in a further assay is T4, BRK (Homo sapiens, UniProt Q13882).
T4 construct: purchased Reaction Biology
T4 sequence (Q13882 whole entry): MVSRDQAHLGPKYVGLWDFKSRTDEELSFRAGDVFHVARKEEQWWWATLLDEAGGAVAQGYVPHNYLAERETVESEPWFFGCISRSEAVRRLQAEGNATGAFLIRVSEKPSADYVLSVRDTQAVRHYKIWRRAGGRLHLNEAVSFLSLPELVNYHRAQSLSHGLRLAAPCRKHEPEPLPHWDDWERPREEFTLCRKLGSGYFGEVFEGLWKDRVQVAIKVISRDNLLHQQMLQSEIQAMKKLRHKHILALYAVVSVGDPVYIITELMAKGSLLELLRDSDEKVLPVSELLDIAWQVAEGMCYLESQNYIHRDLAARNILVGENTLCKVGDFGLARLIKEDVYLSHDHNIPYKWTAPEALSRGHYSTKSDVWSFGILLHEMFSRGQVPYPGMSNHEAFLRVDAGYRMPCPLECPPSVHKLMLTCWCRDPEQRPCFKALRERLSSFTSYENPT
The assay is described as above. In kind it is biochemical. As for the experimental part:
as §1

A further assay deals with T5, TXK (Homo sapiens, UniProt P42681).
T5 construct: purchased Reaction Biology
T5 sequence (P42681 whole entry): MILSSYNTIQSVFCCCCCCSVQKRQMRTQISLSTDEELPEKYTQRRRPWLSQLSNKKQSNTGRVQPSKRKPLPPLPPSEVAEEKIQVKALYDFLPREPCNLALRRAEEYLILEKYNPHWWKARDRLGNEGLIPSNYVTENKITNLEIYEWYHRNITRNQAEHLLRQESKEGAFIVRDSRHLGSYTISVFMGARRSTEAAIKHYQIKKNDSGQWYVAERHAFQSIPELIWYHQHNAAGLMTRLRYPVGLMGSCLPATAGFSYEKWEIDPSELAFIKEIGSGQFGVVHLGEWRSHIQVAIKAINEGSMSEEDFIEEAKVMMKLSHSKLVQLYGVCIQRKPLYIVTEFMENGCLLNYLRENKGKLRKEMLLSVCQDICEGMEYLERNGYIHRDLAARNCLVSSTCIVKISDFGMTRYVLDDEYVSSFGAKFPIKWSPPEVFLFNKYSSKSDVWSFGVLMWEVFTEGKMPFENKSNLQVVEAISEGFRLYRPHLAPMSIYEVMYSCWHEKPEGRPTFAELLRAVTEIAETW
Described as above. In kind it is biochemical. The procedure: as §1

A further assay deals with T6, YES1 (Homo sapiens, UniProt P07947).
T6 construct: purchased Reaction Biology
T6 sequence (P07947 whole entry): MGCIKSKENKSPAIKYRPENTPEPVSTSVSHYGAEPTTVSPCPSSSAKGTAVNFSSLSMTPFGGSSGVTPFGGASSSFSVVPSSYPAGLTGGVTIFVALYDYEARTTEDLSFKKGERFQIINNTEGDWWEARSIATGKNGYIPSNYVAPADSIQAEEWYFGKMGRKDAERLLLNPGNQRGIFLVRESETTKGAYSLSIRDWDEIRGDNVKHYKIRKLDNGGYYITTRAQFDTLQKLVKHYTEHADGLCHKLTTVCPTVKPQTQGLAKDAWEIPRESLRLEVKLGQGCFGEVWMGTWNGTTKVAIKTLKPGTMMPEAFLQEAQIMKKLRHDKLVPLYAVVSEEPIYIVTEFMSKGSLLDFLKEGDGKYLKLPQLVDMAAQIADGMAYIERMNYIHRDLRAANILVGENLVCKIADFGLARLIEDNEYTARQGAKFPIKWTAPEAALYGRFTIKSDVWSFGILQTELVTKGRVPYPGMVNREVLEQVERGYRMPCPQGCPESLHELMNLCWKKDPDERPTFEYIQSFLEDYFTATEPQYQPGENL
Described as above. The class given is biochemical. The procedure:
as §1

A further assay concerns the target T7, FYN (Homo sapiens, UniProt P06241).
T7 construct: purchased Reaction Biology
The description is as above. In kind it is biochemical. As for the experimental part: as §1

For the next assay, the target named is T8, CSK (Homo sapiens, UniProt P41240).
T8 construct: purchased Reaction Biology
T8 sequence (P41240 whole entry): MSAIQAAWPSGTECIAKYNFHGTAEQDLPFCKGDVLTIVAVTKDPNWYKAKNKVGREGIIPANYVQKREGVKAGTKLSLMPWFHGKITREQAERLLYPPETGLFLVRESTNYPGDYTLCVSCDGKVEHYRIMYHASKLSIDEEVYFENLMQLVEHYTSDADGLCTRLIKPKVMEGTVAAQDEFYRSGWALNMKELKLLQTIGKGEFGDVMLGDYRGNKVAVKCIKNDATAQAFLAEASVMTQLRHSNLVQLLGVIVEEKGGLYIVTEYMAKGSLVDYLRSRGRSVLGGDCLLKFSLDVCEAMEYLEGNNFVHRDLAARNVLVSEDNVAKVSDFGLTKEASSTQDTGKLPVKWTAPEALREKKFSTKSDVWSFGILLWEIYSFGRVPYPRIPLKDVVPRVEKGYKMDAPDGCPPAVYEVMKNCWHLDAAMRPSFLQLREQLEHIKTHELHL
The assay is described as above. In kind it is biochemical. As for the experimental part: as §1

The target of a further assay is TEC (Homo sapiens, UniProt P42680). The description is as above. In kind it is biochemical. As to conditions: ATP near Km. As for the experimental part:
as §1

Another assay deals with PLCγ2. As to the kind of experiment: PLCγ2 Y1217 phosphorylation in Ramos RA1 cells. The class given is cell-based. As to conditions: anti-human IgM stimulation. As for the experimental part: Ramos RA1 cells, obtained from ATCC (CRL-1596), are grown in RPMI 1640+10% fetal bovine serum (FBS) at 37° C. in a CO2 incubator. […] Nine hundred μL of cell/well are added to 24 well plates and 100 uL of 10× stocks of inhibitor are added. The 10× compound of Formula I stocks are prepared in 1% DMSO, by doing a 1:3 dilution series with final concentrations in the wells ranging between 900 nM to 0.41 nM. […] All samples are tested in triplicate. After 2 hours (starvation and dosing) sodium orthovanadate is added to a final concentration of 200 μM and incubated for 30 more min. Cells are then stimulated with 4 uL of goat F(ab′)2 anti-human IgM (Jackson ImmunoResearch #109-006-129) for 5 min at room temperature, spun down, resuspended in 100 uL of […]™ M (Sigma #C2978) containing 5× Halt phosphatase and protease inhibitor cocktails (Pierce #78442), and stored at −80° C. Lysates are quantified by BCA (Pierce #23225) and analyzed by Simple Western (Protein Simple) with the following antibodies: anti-phospho-BTK (Y223) (Cell Signaling Technologies (CST) #5082), anti-BTK (CST #8547), anti-phospho-PLCγ2 (Y1217) (CST 3871), anti-PLCγ2 (CST 3872), and anti-GAPDH (GAPDH refers to glyceraldehyde 3-phosphate dehydrogenase) (Novus #MAB5718-SP). […] Results are analyzed with Compass software (Protein Simple), and IC50 values are calculated on GraphPad Prism 7.04 software.

For the next assay, the target named is T9, BTK wild type (Homo sapiens, UniProt Q06187).
T9 construct: expressed in transfected cells; host or cells: HEK293
The assay is described as follows: Y223 autophosphorylation in HEK293 cells stably expressing BTK. In kind it is cell-based. The conditions noted are these: 2 hr treatment, signal normalized to total BTK. The procedure:
HEK293 cell lines stably expressing BTK wild type and the mutant form C481S are generated using standard transfection methods. For assessment of cellular inhibition potency, cells are grown in DMEM +10% Fetal Bovine Serum (FBS)+1 μg/ml puromycin (complete growth media) at 37° C. in a CO2 incubator. Cells are harvested according to standard protocols using TRYPLE™ (Gibco #12604-013), counted, resuspended in complete growth media, and added to 6 well assay plates at 4×10 ^5 cell/well in 2 mL. Plates are incubated overnight at 37° C. with 5% CO2. […] All samples are tested in triplicate. Following compound incubation, the growth medium is discarded, cells are washed with DPBS (1×) (Gibco #14190-144) and lysed in 1 mL of […]™ M (Sigma #C2978) containing 1× Halt phosphatase and protease inhibitor cocktails (Pierce #78442). Plates are placed on ice for 1 hr with gentle agitation and stored at −80° C. overnight. The next day, cell lysates are placed in 1.5 mL tubes and cleared by centrifugation at 16,000×g for 10 min at 4° C. Supernatants are quantified by BCA (Pierce #23225) and stored at −80° C. Samples are analyzed by Simple Western (Protein Simple) with anti-phospho-BTK (Y223) (Cell Signaling Technologies (CST) #5082) and anti-BTK (CST #8547) (FIGS. 10A and 10B). β-actin is used as a loading control and detected by regular Western blot with an anti-3-actin antibody (CST #4970).

In the next assay the test system is TMD8 cells. The assay is described as follows: BTK-dependent proliferation of TMD8 diffuse large B-cell lymphoma cell line. The class given is cell-based. The conditions noted are these: Homo sapiens, from AUC of real-time confluence curves, 0.1 to 1,000 nM. As for the experimental part:
The TMD8 cells are maintained in RPMI 1640 (Gibco Catalog #31870-025) with 10% Fetal Calf Serum (FCS), 1% GLUTAMAX™, Non-Essential Amino-Acids and 1 mM sodium pyruvate. The cells are harvested by centrifugation (5 min, 1200 rpm) prior to reaching a concentration of 3×10^6 cells/mL. The medium is removed and cell pellet resuspended in fresh medium before counting with a Cellometer (Nexcelom). TMD8 cells are seeded at 5×10^4 cells/mL in 20 mL of culture medium in a T75 culture flask and held at 37° C. with 5% CO2.
The anti-proliferation activity of the compound of Formula I with TMD8 cells is accessed by the addition of increasing concentrations of inhibitor from 0.1 to 1,000 nM. A dose-dependent inhibition is observed by real-time assessment of TMD8 confluence. Individual curves for each compound of Formula I concentration are represented in the FIG. 12A.

[1] abbreviates: 1.0 μM compound, ATP close to Km, read-out: Percent of Control (POC).

T1 sequence (Q15303 26-1308): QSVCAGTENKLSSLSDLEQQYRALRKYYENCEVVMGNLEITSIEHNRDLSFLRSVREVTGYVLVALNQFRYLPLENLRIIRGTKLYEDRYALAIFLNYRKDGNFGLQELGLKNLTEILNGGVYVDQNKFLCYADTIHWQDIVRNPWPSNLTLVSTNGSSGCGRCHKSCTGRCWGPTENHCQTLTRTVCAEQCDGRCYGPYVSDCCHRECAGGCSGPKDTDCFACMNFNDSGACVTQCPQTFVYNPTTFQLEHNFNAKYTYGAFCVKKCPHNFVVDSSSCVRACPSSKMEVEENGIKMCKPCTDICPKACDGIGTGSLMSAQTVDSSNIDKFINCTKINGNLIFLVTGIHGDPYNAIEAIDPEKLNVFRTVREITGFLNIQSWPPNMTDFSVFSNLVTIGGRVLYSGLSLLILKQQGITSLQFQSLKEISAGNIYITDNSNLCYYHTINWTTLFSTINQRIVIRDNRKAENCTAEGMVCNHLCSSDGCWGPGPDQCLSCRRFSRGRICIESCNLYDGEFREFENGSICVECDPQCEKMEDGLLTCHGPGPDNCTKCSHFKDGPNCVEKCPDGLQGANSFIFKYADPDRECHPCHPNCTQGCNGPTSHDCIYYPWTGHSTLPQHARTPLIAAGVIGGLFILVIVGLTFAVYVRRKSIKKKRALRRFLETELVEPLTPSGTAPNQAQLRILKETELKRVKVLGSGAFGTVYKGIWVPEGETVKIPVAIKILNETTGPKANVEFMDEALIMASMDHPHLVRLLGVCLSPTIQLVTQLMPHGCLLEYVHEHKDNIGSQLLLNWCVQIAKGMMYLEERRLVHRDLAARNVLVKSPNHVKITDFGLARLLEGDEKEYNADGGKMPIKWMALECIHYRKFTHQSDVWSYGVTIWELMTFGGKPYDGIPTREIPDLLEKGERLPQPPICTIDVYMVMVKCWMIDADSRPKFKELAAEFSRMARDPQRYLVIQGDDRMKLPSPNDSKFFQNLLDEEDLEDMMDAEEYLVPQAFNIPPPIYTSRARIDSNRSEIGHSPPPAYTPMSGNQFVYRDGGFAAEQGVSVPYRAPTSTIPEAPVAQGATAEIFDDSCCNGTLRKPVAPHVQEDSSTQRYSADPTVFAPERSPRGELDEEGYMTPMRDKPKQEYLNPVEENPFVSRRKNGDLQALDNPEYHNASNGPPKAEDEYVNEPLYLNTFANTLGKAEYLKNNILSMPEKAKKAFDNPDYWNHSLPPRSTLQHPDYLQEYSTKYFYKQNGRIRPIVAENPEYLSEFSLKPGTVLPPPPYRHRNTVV
T7 sequence (P06241 whole entry): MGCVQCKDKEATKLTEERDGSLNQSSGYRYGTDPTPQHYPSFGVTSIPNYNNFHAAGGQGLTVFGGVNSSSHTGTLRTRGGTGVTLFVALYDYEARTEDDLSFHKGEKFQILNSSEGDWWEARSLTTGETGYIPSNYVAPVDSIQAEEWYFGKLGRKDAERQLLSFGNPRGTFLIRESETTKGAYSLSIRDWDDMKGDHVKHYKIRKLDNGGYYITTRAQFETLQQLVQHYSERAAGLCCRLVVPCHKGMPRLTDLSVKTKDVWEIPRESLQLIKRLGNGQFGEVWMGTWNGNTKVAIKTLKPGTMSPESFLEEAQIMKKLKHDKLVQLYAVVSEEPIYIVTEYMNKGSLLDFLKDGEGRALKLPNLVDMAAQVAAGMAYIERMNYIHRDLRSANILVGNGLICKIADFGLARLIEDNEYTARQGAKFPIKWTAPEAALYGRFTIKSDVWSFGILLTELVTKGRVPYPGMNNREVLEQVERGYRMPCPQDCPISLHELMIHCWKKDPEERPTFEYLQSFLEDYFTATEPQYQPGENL

As a reminder, the IC50 is the concentration that inhibits the measured activity by half. Read a high IC50 as a need for much substance. In the case of `COc1ccc(F)cc1C(=O)NCc1ccc(-c2nn([C@@H](C)C(F)(F)F)c(N)c2C(N)=O)cc1` [compound of Formula I, (S)-5-amino-3-(4-((5-fluoro-2-methoxybenzamido)methyl)phenyl)-1-(1,1,1-trifluoropropan-2-yl)-1H-pyrazole-4-carboxamide], the remaining activity at 1 µM on ERBB4 (setting [1]), at MEK2 (setting [1]), on MEK1 (setting [1]), on BRK (setting [1]), at TXK (setting [1]) and at YES1 (setting [1]) was less than 50% throughout. For the same molecule, the remaining activity at 1 µM at FYN (setting [1]) and on CSK (setting [1]) was less than 50% throughout. The half-inhibitory concentration (IC50) at ERBB4 (ATP near Km) worked out at 13.2 nM; against MEK2 (ATP near Km) it was 82.7 nM; on MEK1 (ATP near Km), 147 nM; on BRK (ATP near Km), 54.2 nM; against TXK (ATP near Km), 209 nM; on YES1 (ATP near Km), 157 nM. Further, the half-maximal inhibitory concentration (IC50) on FYN (ATP near Km) amounted to 1710 nM; at CSK (ATP near Km) it was 552 nM; on TEC it was 1230 nM; in the assay on PLCγ2, 8.2 nM; against BTK wild type, 8.6 ± 0.3 nM; in the assay with TMD8 cells, 2.33 nM.
